Reference: patent US9216991B2 (Ares Trading S.A., priority 2012, dated 2015)
pIC50: −log10 of the molar value.

Molecular target: T1, IRAK4 (Homo sapiens, UniProt Q9NWZ3)
T1 construct: His (N); TEV cleavage site (N)
T1 sequence (Q9NWZ3 1-460): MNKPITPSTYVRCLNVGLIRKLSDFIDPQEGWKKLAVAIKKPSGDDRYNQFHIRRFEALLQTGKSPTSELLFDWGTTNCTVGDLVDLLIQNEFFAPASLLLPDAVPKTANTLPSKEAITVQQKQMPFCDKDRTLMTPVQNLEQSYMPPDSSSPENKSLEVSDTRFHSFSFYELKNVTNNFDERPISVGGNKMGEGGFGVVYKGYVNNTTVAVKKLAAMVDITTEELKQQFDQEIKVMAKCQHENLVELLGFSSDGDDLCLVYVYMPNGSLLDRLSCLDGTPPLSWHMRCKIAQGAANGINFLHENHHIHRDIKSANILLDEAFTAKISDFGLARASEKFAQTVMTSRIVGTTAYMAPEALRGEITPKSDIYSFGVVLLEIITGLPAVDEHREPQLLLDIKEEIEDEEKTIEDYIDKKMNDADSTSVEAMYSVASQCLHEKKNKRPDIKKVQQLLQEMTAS
Test: IRAK4 Enzymatic Assay
Type: biochemical
Settings: His-TEV-IRAK4 20 ng/well, ATP 2 μM, STK1-biotin peptide 300 nM, 3 hours at 30° C., FlashPlate radioactivity
Method in brief: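 Radiometric FlashPlate readout: biotin-STK1 substrate (300 nM) captured on streptavidin after EDTA stop and washes. Reaction used His-TEV-IRAK4 (20 ng/well), 2 μM [^33P]-spiked ATP and compound (1 nM-20 μM), incubated 3 h at 30 °C in 50 mM HEPES pH 7.0, 10 mM MgCl2, 5 mM MnCl2, 2 mM DTT.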

Compound | pIC50
Cn1cc(-c2cccc(-c3ncc(-c4cnn(CC(=O)N5C6CCC5CC(O)C6)c4)cn3)c2)cn1 (centres unmarked) [Example 127, 1-(3-Hydroxy-8-aza-bicyclo[3.2.1]oct-8-yl)-2-(4-{2-[3-(1-methyl-1H-pyrazol-4-yl)-phenyl]-pyrimidin-5-yl}-pyrazol-1-yl)-ethanone] | 6.00 to 7.00
Cn1cc(-c2cccc(-c3ncc(-c4cnn(CC(=O)N5C6CCC5CC(O)C6)c4)cn3)c2)cn1 (centres unmarked) [Example 128, 1-(3-Hydroxy-8-aza-bicyclo[3.2.1]oct-8-yl)-2-(4-{2-[3-(1-methyl-1H-pyrazol-4-yl)-phenyl]-pyrimidin-5-yl}-pyrazol-1-yl)-ethanone] | 6.00 to 7.00
Cn1cc(-c2cccc(-c3ncc(-c4cnn(C5CCOC5=O)c4)cn3)c2)cn1 (centres unmarked) [Example 129, 3-(4-{2-[3-(1-Methyl-1H-pyrazol-4-yl)-phenyl]-pyrimidin-5-yl}-pyrazol-1-yl)-dihydro-furan-2-one] | 6.00 to 7.00
CC(=O)N1CC[C@@H](n2cc(-c3cnc(-c4cccc(-c5cnn(C)c5)c4)nc3)cn2)C1 [Example 130, 1-[(R)-3-(4-{2-[3-(1-Methyl-1H-pyrazol-4-yl)-phenyl]-pyrimidin-5-yl}-pyrazol-1-yl)-pyrrolidin-1-yl]-ethanone] | 5.30 to 6.00
Cn1cc(-c2cccc(-c3ncc(-c4cnn(CCC5CCOC5)c4)cn3)c2)cn1 (centres unmarked) [Example 131, 2-[3-(1-Methyl-1H-pyrazol-4-yl)-phenyl]-5-{1-[2-(tetrahydro-furan-3-yl)-ethyl]-1H-pyrazol-4-yl}-pyrimidine] | 6.00 to 7.00
Cn1cc(-c2cccc(-c3ncc(-c4cnn(CCC5CCOC5=O)c4)cn3)c2)cn1 (centres unmarked) [Example 132, 3-[2-(4-{2-[3-(1-Methyl-1H-pyrazol-4-yl)-phenyl]-pyrimidin-5-yl}-pyrazol-1-yl)-ethyl]dihydro-furan-2-one] | 6.00 to 7.00
CC(C)N1C2CCCC1CC(n1cc(-c3cnc(-c4cccc(-c5cnn(C)c5)c4)nc3)cn1)C2 (centres unmarked) [Example 133, 9-Isopropyl-3-(4-{2-[3-(1-methyl-1H-pyrazol-4-yl)-phenyl]-pyrimidin-5-yl}-pyrazol-1-yl)-9-aza-bicyclo[3.3.1]nonane] | 6.00 to 7.00
CN(C)C(=O)[C@H]1CC[C@@H](n2cc(-c3cnc(-c4cccc(-c5cnn(C)c5)c4)nc3)cn2)CC1 [Example 135, Cis-4-(4-{2-[3-(1-Methyl-1H-pyrazol-4-yl)-phenyl]-pyrimidin-5-yl}-pyrazol-1-yl)-cyclohexanecarboxylic acid dimethylamide] | 6.00 to 7.00
Nc1cc(-c2cccc(-c3ncc(-c4cnn(C5CCOCC5)c4)cn3)c2)ccn1 [Example 136, 4-(3-{5-[1-(Tetrahydro-pyran-4-yl)-1H-pyrazol-4-yl]-pyrimidin-2-yl}-phenyl)-pyridin-2-ylamine] | 6.00 to 7.00
Cn1cc(-c2cccc(-c3ncc(-c4cn(C5CCOCC5)nc4C(N)=O)cn3)c2)cn1 [Example 137, 4-{2-[3-(1-Methyl-1H-pyrazol-4-yl)-phenyl]-pyrimidin-5-yl}-1-(tetrahydro-pyran-4-yl)-1H-pyrazole-3-carboxylic acid amide] | 5.30 to 6.00
Cc1cc(-c2cccc(-c3ncc(-c4cnn(C5CCOCC5)c4)cn3)c2)cnn1 [Example 138, 3-Methyl-5-(3-{5-[1-(tetrahydro-pyran-4-yl)-1H-pyrazol-4-yl]-pyrimidin-2-yl}-phenyl)-pyridazine] | 6.00 to 7.00
Cc1cc(-c2cccc(-c3ncc(-c4cnn(C5CCOCC5)c4)cn3)c2)ccn1 [Example 139, 2-[3-(2-Methyl-pyridin-4-yl)-phenyl]-5-[1-(tetrahydro-pyran-4-yl)-1H-pyrazol-4-yl]-pyrimidine] | 6.00 to 7.00
Cn1cc(-c2cccc(-c3ncc(-c4cn(C5CCOCC5)nc4C(=O)O)cn3)c2)cn1 [Example 140, 4-{2-[3-(1-Methyl-1H-pyrazol-4-yl)-phenyl]-pyrimidin-5-yl}-1-(tetrahydro-pyran-4-yl)-1H-pyrazole-3-carboxylic acid] | 5.30 to 6.00
Cn1cc(-c2cccc(-c3ncc(-c4cnn(C5COC5)c4)cn3)c2)cn1 [Example 141, 2-[3-(1-Methyl-1H-pyrazol-4-yl)-phenyl]-5-(1-oxetan-3-yl-1H-pyrazol-4-yl)-pyrimidine] | 6.00 to 7.00
CN1[C@@H]2CCC[C@H]1C[C@H](n1cc(-c3cnc(-c4cccc(-c5cnn(C)c5)c4)nc3)cn1)C2 [Example 142, Exo-9-Methyl-3-(4-{2-[3-(1-methyl-1H-pyrazol-4-yl)-phenyl]-pyrimidin-5-yl}-pyrazol-1-yl)-9-aza-bicyclo[3.3.1]nonane] | 6.00 to 7.00
CNC(=O)c1nn(C)cc1-c1cnc(-c2cccc(-c3cnn(C)c3)c2)nc1 [Example 144, 1-Methyl-4-{2-[3-(1-methyl-1H-pyrazol-4-yl)-phenyl]-pyrimidin-5-yl}-1H-pyrazole-3-carboxylic acid methylamide] | 5.30 to 6.00
CN(C(=O)Cn1cc(-c2cnc(-c3cccc(-c4cnn(C)c4)c3)nc2)cn1)C1COC1 [Example 145, N-Methyl-2-(4-{2-[3-(1-methyl-1H-pyrazol-4-yl)-phenyl]-pyrimidin-5-yl}-pyrazol-1-yl)-N-oxetan-3-yl-acetamide] | 6.00 to 7.00
CC1COCCN1C(=O)Cn1cc(-c2cnc(-c3cccc(-c4cnn(C)c4)c3)nc2)cn1 (centres unmarked) [Example 147, 1-(3-Methyl-morpholin-4-yl)-2-(4-{2-[3-(1-methyl-1H-pyrazol-4-yl)-phenyl]-pyrimidin-5-yl}-pyrazol-1-yl)-ethanone] | 6.00 to 7.00

Other lines, results leading:

pIC50 | Compound
6.00 to 7.00 | Cn1cc(-c2cccc(-c3ncc(-c4cnn(C5CCN(C(=O)C6CC(=O)C6)CC5)c4)cn3)c2)cn1 [Example 117, 3-[4-(4-{2-[3-(1-Methyl-1H-pyrazol-4-yl)-phenyl]-pyrimidin-5-yl}-pyrazol-1-yl)-piperidine-1-carbonyl]-cyclobutanone]
6.00 to 7.00 | Cn1cc(-c2cccc(-c3ncc(-c4cnn(C5C[C@H]6CC[C@@H](C5)N6CC(O)C(F)(F)F)c4)cn3)c2)cn1 (stereo partly drawn) [Example 118, 1,1,1-Trifluoro-3-[(1R,5S)-3-(4-{2-[3-(1-methyl-1H-pyrazol-4-yl)-phenyl]-pyrimidin-5-yl}-pyrazol-1-yl)-8-aza-bicyclo[3.2.1]oct-8-yl]-propan-2-ol]
6.00 to 7.00 | CC(=O)N1[C@@H]2CC[C@H]1CC(n1cc(-c3cnc(-c4cccc(-c5cnn(C)c5)c4)nc3)cn1)C2 (stereo partly drawn) [Example 119, 1-[(1R,5S)-3-(4-{2-[3-(1-Methyl-1H-pyrazol-4-yl)-phenyl]-pyrimidin-5-yl}-pyrazol-1-yl)-8-aza-bicyclo[3.2.1]oct-8-yl]-ethanone]
6.00 to 7.00 | Cn1cc(-c2cccc(-c3ncc(-c4cnn(C5CCN(C(=O)C6CC(O)C6)CC5)c4)cn3)c2)cn1 (centres unmarked) [Example 120, (3-Hydroxy-cyclobutyl)-[4-(4-{2-[3-(1-methyl-1H-pyrazol-4-yl)-phenyl]-pyrimidin-5-yl}-pyrazol-1-yl)-piperidin-1-yl]-methanone]
6.00 to 7.00 | CO[C@@H]1COCCC1N1CCC(n2cc(-c3cnc(-c4cccc(-c5cnn(C)c5)c4)nc3)cn2)CC1 (stereo partly drawn) [Example 122, 5-{1-[1-((S)-3-Methoxy-tetrahydro-pyran-4-yl)-piperidin-4-yl]-1H-pyrazol-4-yl}-2-[3-(1-methyl-1H-pyrazol-4-yl)-phenyl]-pyrimidine]
6.00 to 7.00 | CN1CCC[C@H]1C(=O)N1CCC(n2cc(-c3cnc(-c4cccc(-c5cnn(C)c5)c4)nc3)cn2)CC1 [Example 123, [4-(4-{2-[3-(1-Methyl-1H-pyrazol-4-yl)-phenyl]-pyrimidin-5-yl}-pyrazol-1-yl)-piperidin-1-yl]-((S)-1-methyl-pyrrolidin-2-yl)-methanone]
6.00 to 7.00 | CC(C)[C@H](N)C(=O)N1CCC(n2cc(-c3cnc(-c4cccc(-c5cnn(C)c5)c4)nc3)cn2)CC1 [Example 124, (S)-2-Amino-3-methyl-1-[4-(4-{2-[3-(1-methyl-1H-pyrazol-4-yl)-phenyl]-pyrimidin-5-yl}-pyrazol-1-yl)-piperidin-1-yl]-butan-1-one]
6.00 to 7.00 | Cn1cc(-c2cccc(-c3ncc(-c4cnn([C@H]5CCNC5)c4)cn3)c2)cn1 [Example 125, 2-[3-(1-Methyl-1H-pyrazol-4-yl)-phenyl]-5-((S)-1-pyrrolidin-3-yl-1H-pyrazol-4-yl)-pyrimidine]
6.00 to 7.00 | CC(=O)N1CC[C@H](n2cc(-c3cnc(-c4cccc(-c5cnn(C)c5)c4)nc3)cn2)C1 [Example 126, 1-[(S)-3-(4-{2-[3-(1-Methyl-1H-pyrazol-4-yl)-phenyl]-pyrimidin-5-yl}-pyrazol-1-yl)-pyrrolidin-1-yl]-ethanone]
> 7.00 | CN(C)C(=O)[C@H]1CC[C@H](n2cc(-c3cnc(-c4cccc(-c5cnn(C)c5)c4)nc3)cn2)CC1 [Example 134, Trans-4-(4-{2-[3-(1-Methyl-1H-pyrazol-4-yl)-phenyl]-pyrimidin-5-yl}-pyrazol-1-yl)-cyclohexanecarboxylic acid dimethylamide]
> 7.00 | CNC(=O)[C@H]1CC[C@H](n2cc(-c3cnc(-c4cccc(-c5cnn(C)c5)c4)nc3)cn2)CC1 [Example 143, Trans-4-(4-{2-[3-(1-Methyl-1H-pyrazol-4-yl)-phenyl]-pyrimidin-5-yl}-pyrazol-1-yl)-cyclohexanecarboxylic acid methylamide]
